{"source": "patent US20030143635A1", "about": "“Assay for detection of transferase enzyme activity in drug screening” (AstraZeneca AB, priority 2000, published 2003)", "key": {"[1]": {"test_system": "translocase and transferase enzymes", "type": "biochemical, Escherichia coli", "details": "100 μM test compound; E. coli AMA1004 membranes; 37° C., 30 min; after subtracting 0% reaction readings", "quoted_text": "(§1) (i) The wells of a microtitre plate were individually filled with a total volume of 25 μl of a reaction mixture comprising an aqueous buffer solution of 50 mM HEPES-ammonia (N-[2-Hydroxyethyl]piperazine-N′-[2-ethanesulfonic acid]) (pH 7.5), and 10 mM magnesium chloride 15 μM UDP-MurNAc-L-alanine-γ-D-glutamic acid-m-diaminopimelic acid-D-alanine-D-alanine, 2.5 μM tritiated UDP-N-acetyl glucosamine (0.2 μCi per well), 6 μg of Escherichia coli AMA1004 cell membranes prepared as described below and a solution of test compound (e.g. Tunicamycin, Vancomycin) of varying concentration in 4% dimethylsulphoxide.\n(§2) Four wells of the microtitre plate were used as controls: two wells contained no UDP-N-acetylmuramylpentapeptide (0% reaction controls) and a further two wells contained no test compound (100% reaction controls).\n(§3) The microtitre plate was incubated at 37° C. for 30 min and thereafter 5 μl of ethylenediaminetetraacetic acid (EDTA) was added to give a final EDTA concentration of 15 mM.\n(§4) (ii) After addition of the EDTA, 170 μl of an aqueous suspension of wheatgerm agglutinin-coated scintillation proximity assay beads comprising 500 μg beads in a solution of HEPES-ammonia, pH 7.5, was added to each well such that the final concentration of HEPES-ammonia was 50 mM.\n(§5) The plate was left for 3 hours/overnight at room temperature before being counted in the “Microbeta Trilux” counter."}, "transferase enzyme": {"target": "T1, transferase enzyme (Escherichia coli, UniProt P17443)", "T1 sequence (P17443 1-355)": "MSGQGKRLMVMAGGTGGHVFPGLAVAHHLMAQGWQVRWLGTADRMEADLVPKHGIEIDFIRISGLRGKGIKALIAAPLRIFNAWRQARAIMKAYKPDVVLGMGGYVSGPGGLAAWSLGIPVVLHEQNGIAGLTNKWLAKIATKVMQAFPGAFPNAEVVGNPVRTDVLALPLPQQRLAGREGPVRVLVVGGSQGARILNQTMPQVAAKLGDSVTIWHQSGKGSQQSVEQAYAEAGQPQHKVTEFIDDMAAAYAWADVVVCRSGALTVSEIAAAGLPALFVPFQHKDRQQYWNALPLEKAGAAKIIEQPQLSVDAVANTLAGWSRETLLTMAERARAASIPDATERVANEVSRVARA", "assay": "Scintillation proximity assay of the transferase alone, with membranes of E. coli AMA1004 ΔponB::SpcR and pre-formed Lipid I (Example 4)", "type": "biochemical", "details": "Tunicamycin 10 μg/ml present, 37° C., 5 min, after subtracting 0% reaction readings", "method": "Microbiol., (1985), 131, 2839-2845. The plate was incubated for 20 min at 37° C.\n(ii) Tunicamycin was then added to a final concentration of 10 μg/ml, followed by a test compound (e.g. Vancomycin or Nisin) of varying concentration in dimethyl sulphoxide. Nisin and Vancomycin are known antagonists of the transferase enzyme.\n(iii) Then to the reaction well, in a 5 μl volume, the substrate for the transferase was added: 2.5 μM tritiated UDP-N-acetyl glucosamine (0.5 μCi per well). The microtitre plate was incubated for 5 min at 37° C.\n(iv) The reaction was terminated by diluting out the radiolabel i.e. by addition of 25 μl of 200 μM unlabelled UDP-GlcNAc."}, "[2]": {"target": "T2, translocase and transferase enzymes (Escherichia coli, UniProt P0A6W3)", "T2 sequence (P0A6W3 1-360)": "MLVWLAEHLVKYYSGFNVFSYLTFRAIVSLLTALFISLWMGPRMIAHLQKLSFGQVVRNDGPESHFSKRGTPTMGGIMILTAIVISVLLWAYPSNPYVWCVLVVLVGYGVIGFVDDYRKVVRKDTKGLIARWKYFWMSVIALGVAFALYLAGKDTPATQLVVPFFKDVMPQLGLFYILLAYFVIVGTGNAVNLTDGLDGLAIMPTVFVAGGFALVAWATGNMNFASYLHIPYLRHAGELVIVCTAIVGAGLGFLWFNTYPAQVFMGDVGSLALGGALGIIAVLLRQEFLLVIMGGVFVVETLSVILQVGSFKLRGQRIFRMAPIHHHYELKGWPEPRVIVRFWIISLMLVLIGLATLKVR", "type": "biochemical", "details": "6 μg/ml test compound; E. coli AMA1004 membranes; 37° C., 30 min; after subtracting 0% reaction readings", "quoted_text": "as §1, §2, §3, §4, §5"}}}
{"compound": "CN[C@H](CC(C)C)C(=O)N[C@H]1C(=O)N[C@@H](CC(N)=O)C(=O)N[C@H]2C(=O)N[C@H]3C(=O)N[C@H](C(=O)N[C@H](C(=O)O)c4cc(O)cc(O)c4-c4cc3ccc4O)[C@H](O)c3ccc(c(Cl)c3)Oc3cc2cc(c3O[C@@H]2O[C@H](CO)[C@@H](O)[C@H](O)[C@H]2O[C@H]2C[C@](C)(N)[C@H](O)[C@H](C)O2)Oc2ccc(cc2Cl)[C@H]1O", "note": "[Vancomycin]", "values": [{"measurement": "% Inhibition", "setting": "[1]", "value": 82, "unit": "%"}, {"measurement": "remaining activity at 100 µM", "setting": "transferase enzyme; 100 μM test compound", "value": "~50", "unit": "%"}]}
{"compound": "Nisin", "values": [{"measurement": "% Enzyme Activity", "setting": "transferase enzyme; 10 μg/ml test compound", "value": "˜30%"}]}
{"compound": "Tunicamycin", "values": [{"measurement": "% Inhibition", "setting": "[2]", "value": 104, "unit": "%"}]}
